Results on one compound are retold here after patent US20170348258A1, “3-Amino Benzamide Derivative Serving As B-Lactam Auxiliary Antibiotic, Preparation Method and Use Thereof” (THE HONG KONG POLYTECHNIC UNIVERSITY, priority 2014, published 2017).

Structures are written as SMILES. ≈ marks a conversion by molar mass, not a printed value. Some results are limits rather than exact numbers.

One experiment relates to MRSA strain USA300#757. In words: Fractional Inhibitory Concentration Index (FICI) determination. Format: cell-based, S. aureus. On the procedure:
The bacterial strains used in this study were clinically isolated MRSA strains USA300#757 and #2960 which were obtained from our laboratory. Determination of the Fractional Inhibitory Concentration Index (FICI) was adopted by the Müller-Hinton broth (MHB) dilution method as previously described. Twelve serial two-fold dilutions of PC190723, F332 and F361 were prepared in the 96-well microplate with concentration ranging from 512 to 0.25 μg/mL. […] Lastly, the compounds and the β-lactams were mixed at a 1:1 ratio and subjected to two-fold dilution as described previously. Each microplate well contained 100 μL of MHB supplemented with compounds alone, β-lactams alone or the mixture of compounds and β-lactams. Overnight cultures of S. aureus in the Müller-Hinton broth was diluted to OD595 of 0.08-0.1 in saline and added in each of the microplate well. The plates were incubated at 37° C. for 20 h. All tests were performed in duplicate and the inhibition of bacterial growth was determined by visualization. The FICI of compounds and β-lactams were calculated as followed: FICI=(MIC of combination of compound and β-lactam/MIC of compound alone)+(MIC of combination of compound and β-lactam/MIC of β-lactam alone).

In another experiment the test system is MRSA strain USA300#2960. The description is as above. It counts as cell-based, S. aureus. On the procedure:
The bacterial strains used in this study were clinically isolated MRSA strains USA300#757 and #2960 which were obtained from our laboratory. Determination of the Fractional Inhibitory Concentration Index (FICI) was adopted by the Müller-Hinton broth (MHB) dilution method as previously described. Twelve serial two-fold dilutions of PC190723, F332 and F361 were prepared in the 96-well microplate with concentration ranging from 512 to 0.25 μg/mL. A series of two-fold dilutions of ampicillin, cloxacillin and cefuroxime were also prepared following the same procedure. Lastly, the compounds and the β-lactams were mixed at a 1:1 ratio and subjected to two-fold dilution as described previously. Each microplate well contained 100 μL of MHB supplemented with compounds alone, β-lactams alone or the mixture of compounds and β-lactams. Overnight cultures of S. aureus in the Müller-Hinton broth was diluted to OD595 of 0.08-0.1 in saline and added in each of the microplate well. The plates were incubated at 37° C. for 20 h. All tests were performed in duplicate and the inhibition of bacterial growth was determined by visualization. The FICI of compounds and β-lactams were calculated as followed: FICI=(MIC of combination of compound and β-lactam/MIC of compound alone)+(MIC of combination of compound and β-lactam/MIC of β-lactam alone).

In a further experiment the test system is E. coli. In words: Antibacterial susceptibility test (MIC, microbroth dilution). The following applies: 18 hours at 37° C., >90% inhibition of bacterial growth. Format: cell-based. The source says:
(§1) The bacterial strains used in microbial susceptibility test were E. coli, S. aureus 29213 and B. subtilis 168. E. coli and S. aureus 29213 were obtained from the laboratory of the Hong Kong Polytechnic University. B. subtilis 168 was purchased from American Type Culture Collection (USA). The mammalian cell lines L929 (mouse peritoneal fibroblast), LCC6 (a wild type breast cancer cell line), LCC6MDR (P-gp over-expressed breast cancer cell line) were stocks in our department. Nutrient Agar, tryptone and yeast extract were purchased from Oxoid Limited (Nepean, Ontario, Canada). Luria-Bertani (LB) medium was prepared from 2 g tryptone, 1 g yeast extract, and 2 g sodium chloride in 200 ml deionized water and sterilized. Müller-Hinton broth (MHB), cation-adjusted Müller-Hinton broth (MHB) and trypticase soy broth (TSB) for microbial susceptibility test were purchased from Becton, Dickinson and Company (New Jersey, USA). A microplate reader (Bio-Rad Laboratories Model 680) is used to measure bacterial growth and cytotoxicity. An Olympus FSX100® Bio Imaging Navigator Microscope was used to observe the morphology of B. subtilis cell.
(§2) The minimum inhibitory concentration (MIC) of each compound was determined using microbroth dilution method according to the National Committee for Clinical Laboratory Standards (CLSI) guidelines. All Compounds were dissolved in DMSO and diluted in a serial two-fold manner. A single colony of bacterial strain on a TSB agar plate was inoculated in 5 mL MHB or CA-MHB. The bacterial cells were incubated at 37° C. until the optimal density (OD600) of the growing cells reached 1.0. The cells were then diluted to a final concentration of approximately 5×10^5 CFU/mL in a serial two-fold manner in a 96-well microtiter plate (Iwaki, Japan). Compound 3 and PC190723 were used as positive controls. […] Table 1 below summarizes the MIC of all synthesized compounds.
On the technique in general: Dilution methods test growth across graded concentrations, often in twofold steps.

For the next experiment, the system named is B. subtilis 168. Described as above. Format: cell-based. As to conditions: 18 hours at 37° C., >90% inhibition of bacterial growth; read-out: MIC, BS 168.
Text: as §1, §2

In a further experiment the test system is S. aureus 29213. The experiment is described as above. As to conditions: 18 hours at 37° C., >90% inhibition of bacterial growth. It counts as cell-based.
Text: as §1, §2

As a reminder, the MIC is the smallest concentration in the dilution series that meets the test's criterion for growth inhibition. On to `NC(=O)c1c(F)ccc(OCc2nc3cc(Cl)cnc3s2)c1F` [PC190723, reference compound], for which the “FICI with Cefotaxime” value in the experiment with MRSA strain USA300#757 is reported as 1.02; in the experiment on MRSA strain USA300#2960, 1.03. The entries for the “FICI with Meropenem” value in the experiment on MRSA strain USA300#757 and with MRSA strain USA300#2960 were 0.31 and 0.63, respectively. Besides, the results for the MIC in the experiment on E. coli, in the experiment on B. subtilis 168 and with S. aureus 29213 were above 2 µM, 0.5 µM (≈ 0.178 µg/mL) and 0.5 µM (≈ 0.178 µg/mL), respectively.
